Test results reported in patent EP0007995A1, “Chemotherapeutic preparations and their manufacture” (F. HOFFMANN-LA ROCHE & CO. Aktiengesellschaft, priority 1978, dated 1980).

Key:
Proteus mirabilis = test: In vivo activity in infected mouse; settings: po; Maus, p.o., gegen Proteus mirabilis; read-out: CD50 p.o.
Salmonella typhimurium = test: In vivo activity in infected mouse; settings: Salmonella enterica, po; Maus, p.o., gegen Salmonella typhimurium; read-out: CD50 p.o.
Acute toxicity = settings: mouse, in vivo
E. coli 1346 = test: In vivo activity in infected mouse; settings: Escherichia coli, po; Maus, p.o., gegen E. coli 1346; read-out: CD50 p.o.
[1] = system: Streptococcus pyogenes β15; test: In vivo activity in infected mouse; settings: po; Maus, p.o., gegen Streptococcus pyogenes β15; read-out: CD50 p.o.
[2] = system: Pseudomonas aeruginosa BA; test: In vivo activity in infected mouse; settings: po; Maus, p.o., gegen Pseudomonas aeruginosa BA; read-out: CD50 p.o.
[3] = in vivo
in vivo = settings: mouse
[4] = J. Pharm. Pharmacol. 3 [1951], 143; cited from earlier work
Water solubility = type: physicochemical
Experimental: Wie gefunden wurde, lassen sich mit Fluoramphenicol wässrige Lösungen in Konzentrationen bis zu 0,5 g/10 ml herstellen. Solche Lösungen stellen eine wertvolle parenterale Applikationsform, insbesondere für die intravenöse Injektion und -Infusion dar. Dank seiner guten Wasserlöslichkeit eignet sich Fluoramphenicol auch für die Herstellung von ophthalmologischen Präparaten mit besonders guter Verträglichkeit, insbesondere für die Herstellung von Augentropfen.

menschlichen Lymphozyten = settings: human

| Structure (SMILES) | ED50 (Proteus mirabilis) [mg/kg] | ED50 (Salmonella typhimurium) [mg/kg] | LD50 (Acute toxicity; ip) [mg/kg] | LD50 (Acute toxicity; po) [mg/kg] | ED50 (E. coli 1346) [mg/kg] | ED50 [1] [mg/kg] | ED50 [2] [mg/kg] | metabolic stability (concluded from urine recovery) [3] | Serumkonzentrationen ([3]; po) | Urinkonzentrationen, mal höher als Chloramphenicol ([3]; po) | mal langsamer ausgeschieden als Chloramphenicol ([3]; po) | totale Urin-recovery an aktivem Fluoramphenicol, mal höher als an aktivem Chloramphenicol ([3]; po) | LD50 (in vivo; ip) [mg/kg] | LD50 (in vivo; po) [mg/kg] | biological activity [4] | Cytotoxizität gegenüber KB-Zellen, mal weniger toxisch als Chloramphenicol (KB-Zellen) | wässrige Lösungen in Konzentrationen (Water solubility; aqueous solution) | Wasserlöslichkeit (Water solubility; result in words) | Cytotoxizität gegenüber menschlichen Lymphozyten, mal weniger toxisch als Chloramphenicol (menschlichen Lymphozyten) [mal] |
| --- | --- | --- | --- | --- | --- | --- | --- | --- | --- | --- | --- | --- | --- | --- | --- | --- | --- | --- | --- |
| O=C(N[C@H](CO)[C@H](O)c1ccc([N+](=O)[O-])cc1)C(Cl)Cl [Chloramphenicol, reference compound] | 5.8 | 18 | 1000 to 1500 | 2000 to 3000 | 6.6 | 22 | 93 | – | – | – | – | – | – | – | – | – | – | – | – |
| O=C(N[C@H](CO)[C@H](O)c1ccc([N+](=O)[O-])cc1)C(F)F [Fluoramphenicol, D-threo-1-(p-Nitrophenyl)-2-difluor-acetamino-l,3-propandiol] | 5.2 | 19 | – | – | 6.6 | 11 | 33 | metabolisch beständig | höhere Serumkonzentrationen als Chloramphenicol | ca. lO | 2-3 mal | ca. lO | 2000 to 3000 | 3000 to 4000 | biologisch unwirksam | 3-5 mal | ≤ 0,5 g/10 ml | unerwartet hohe Wasserlöslichkeit | ~3 |
